Measured values taken from ChEMBL document CHEMBL1201862, “PubChem BioAssay data set” (2004).
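Exposure lasted 48 hours, with cells grown in 96-well plates and compounds tested at five concentrations. GI50 marks 50% less growth.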 Activity calls are given as the source filed them. Rule as the data show it: active = GI50 up to about 1.1 µM and inactive = higher.

How the values were obtained:
Assay in all cases: NCI-60 cell line screen, 48 h
[1] = test system: XF498
[2] = test system: M19-MEL
[3] = test system: DLD-1
[4] = test system: DMS-273
[5] = test system: HOP-18
[6] = test system: RXF 631
[7] = test system: BT-549
[8] = test system: MCF7
[9] = test system: MDA-N

With `O=S(=O)(c1ccccc1)C(CN1CCCCC1)S(=O)(=O)c1ccccc1` the GI50 [1] was > 100 µM (inactive), the GI50 [2] was > 100 µM (inactive) and the GI50 [3] was > 100 µM (inactive). For the same molecule, the GI50 [4] was > 100 µM (inactive).

In the case of `c1ccc(C2=NOC3COc4ccccc4OCC23)cc1` (configuration not stated), the GI50 [4] is reported as > 100 µM (inactive).

`O=C(/C=C/c1ccccc1Cl)NC1C=Nc2ccc([N+](=O)[O-])cc2NC1` (configuration not stated) was tested, and the GI50 [1] was > 100 µM (inactive), the GI50 [2] was 53.2 µM (inactive) and the GI50 [3] was 48.6 µM (inactive). For the same molecule, the GI50 [4] was > 100 µM (inactive) and the GI50 [5] was > 100 µM (inactive).

In the case of `COC(=O)C(Cc1nc2ccccc2nc1O)C(=O)C(=O)Nc1ccc([N+](=O)[O-])cc1[N+](=O)[O-]` (configuration not stated), the GI50 [1] is reported as 20.1 µM (inactive), the GI50 [2] is reported as 16.6 µM (inactive) and the GI50 [3] is reported as 19.5 µM (inactive). The GI50 [4] was 17.6 µM (inactive), the GI50 [5] was 16.8 µM (inactive) and the GI50 [6] was 24.5 µM (inactive).

`CCN(C(=N)C#N)c1ccccc1` was tested, and the GI50 [2] was > 55.1 µM (inactive), the GI50 [3] was > 40.7 µM (inactive) and the GI50 [4] was > 42.5 µM (inactive). The GI50 [5] was > 100 µM (inactive) and the GI50 [6] was > 100 µM (inactive).

For `CC1=C(c2cc(C(=O)Nc3cccc(C(F)(F)F)c3)ncn2)Sc2ccccc2N1`, the GI50 [1] was > 100 µM (inactive), the GI50 [2] was > 100 µM (inactive) and the GI50 [3] was > 100 µM (inactive). For the same molecule, the GI50 [4] was > 100 µM (inactive) and the GI50 [5] was > 100 µM (inactive).

`CC1(C)CC(C)(C)CC(O)(C2(O)CC(C)(C)CC(C)(C)C2)C1` was tested, and the GI50 [1] was > 100 µM (inactive), the GI50 [2] was > 100 µM (inactive) and the GI50 [4] was > 100 µM (inactive).

`Cc1ccc(S(=O)(=O)N/N=C\c2c3ccccc3[n+]([O-])c3ccccc23)cc1` was tested, and the GI50 [2] was 7.67 µM (inactive), the GI50 [3] was 2.65 µM (inactive) and the GI50 [4] was 3.41 µM (inactive). For the same molecule, the GI50 [5] was 6.76 µM (inactive) and the GI50 [6] was 3.01 µM (inactive).

`CN(C)c1ccc(/C=C(\NC(=O)c2ccccc2)c2nc3ccc4c(c3[nH]2)C(=O)c2ccccc2C4=O)cc1` was tested, and the GI50 [2] was > 100 µM (inactive), the GI50 [3] was 9.48 µM (inactive) and the GI50 [4] was 27.2 µM (inactive). The GI50 [6] was 34.7 µM (inactive).

For `O=C(CO)CC(=O)C(=O)Nc1nc([N+](=O)[O-])cs1`, the GI50 [2] was > 100 µM (inactive), the GI50 [3] was > 100 µM (inactive) and the GI50 [4] was > 100 µM (inactive). The GI50 [5] was > 100 µM (inactive) and the GI50 [6] was > 100 µM (inactive).

In the case of `CCCCC(C(=O)C(=O)NC1C2CC3CC(C2)CC1C3)C(=O)C(C)C` (configuration not stated), the GI50 [1] is reported as > 100 µM (inactive), the GI50 [2] is reported as > 100 µM (inactive) and the GI50 [4] is reported as > 100 µM (inactive). The GI50 [5] was > 100 µM (inactive) and the GI50 [6] was > 100 µM (inactive).

`CCC1(O)C(=O)OCc2c1cc1n(c2=O)Cc2cc3cc(OC)c(OC)cc3nc2-1` (configuration not stated) was tested, and the GI50 [1] was 34.3 µM (inactive) and the GI50 [5] was 56.8 µM (inactive).

With `CC(=O)N(O)Cc1ccccc1` the GI50 [1] was > 100 µM (inactive), the GI50 [2] was > 100 µM (inactive) and the GI50 [3] was > 100 µM (inactive). The GI50 [6] was > 100 µM (inactive).

In the case of `Cn1c(-c2ccccc2)c/c(=N\NS(C)(=O)=O)c2cc(S(=O)(=O)O)ccc21`, the GI50 [1] is reported as > 100 µM (inactive), the GI50 [2] is reported as > 100 µM (inactive) and the GI50 [3] is reported as > 100 µM (inactive). For the same molecule, the GI50 [4] was > 100 µM (inactive) and the GI50 [5] was > 100 µM (inactive).

With `NCC(=O)OCN1C(=O)C2C3C=CC(C2C1=O)C1C2C(=O)N(COC(=O)CN)C(=O)C2C31` (configuration not stated) the GI50 [1] was 31.4 µM (inactive), the GI50 [2] was 21 µM (inactive) and the GI50 [3] was 25.1 µM (inactive). For the same molecule, the GI50 [4] was 19.8 µM (inactive) and the GI50 [5] was 25.9 µM (inactive).

For `c1ccc(CN(Cc2ccccn2)Cn2cccn2)nc1`, the GI50 [1] was 60 µM (inactive), the GI50 [2] was 35 µM (inactive) and the GI50 [3] was 30.2 µM (inactive). The GI50 [4] was 35.7 µM (inactive) and the GI50 [6] was 38 µM (inactive).

For `COc1ccccc1NC(=O)C(CC(C(=O)Nc1ccccc1OC)/C(C)=N/Nc1ccc([N+](=O)[O-])cc1[N+](=O)[O-])/C(C)=N/Nc1ccc([N+](=O)[O-])cc1[N+](=O)[O-]` (configuration not stated), the GI50 [1] was 51.6 µM (inactive), the GI50 [2] was > 100 µM (inactive) and the GI50 [3] was 80.4 µM (inactive). The GI50 [4] was 56 µM (inactive), the GI50 [5] was > 95.3 µM (inactive) and the GI50 [6] was 40.6 µM (inactive).

For `Cc1cccc2c1C/C(=C1\CCc3c(C)cccc31)C2=O`, the GI50 [2] was > 100 µM (inactive), the GI50 [3] was > 100 µM (inactive) and the GI50 [4] was > 100 µM (inactive). The GI50 [5] was 38.3 µM (inactive) and the GI50 [6] was > 100 µM (inactive).

In the case of `CCc1oc2ccc(OC)c3c2c1C=CC=C3`, the GI50 [2] is reported as > 100 µM (inactive), the GI50 [3] is reported as > 100 µM (inactive) and the GI50 [4] is reported as > 100 µM (inactive).

`CC1CC[C@]2(C(=O)O)CCC3(C)C(=CC(=O)C4[C@@]5(C)CCC(=O)C(C)(C)C5CC[C@]43C)[C@@H]2[C@H]1C` (some centres not stated) was tested, and the GI50 [1] was 10 µM (inactive), the GI50 [2] was 23.3 µM (inactive) and the GI50 [5] was 31.9 µM (inactive). For the same molecule, the GI50 [6] was 27.3 µM (inactive).

`C=CCNC(=O)N(CCCCC(NC(C)=O)C(=O)NCc1ccccc1)Cc1ccccc1` (configuration not stated) was tested, and the GI50 [1] was > 100 µM (inactive), the GI50 [2] was > 100 µM (inactive) and the GI50 [4] was > 100 µM (inactive). For the same molecule, the GI50 [5] was > 100 µM (inactive) and the GI50 [6] was > 100 µM (inactive).

In the case of `O=C(O)[C@@H]1CCCC[C@@H]1C(=O)N(C1CCCCC1)C1CCCCC1`, the GI50 [2] is reported as > 100 µM (inactive), the GI50 [3] is reported as > 100 µM (inactive) and the GI50 [4] is reported as > 100 µM (inactive). The GI50 [6] was > 100 µM (inactive).

`CCCCCCCOc1ccc(/C=C\c2cc[n+](CCCCCCCC[n+]3ccc(/C=C\c4ccc(OCCCCCCC)cc4)cc3)cc2)cc1` was tested, and the GI50 [2] was 21.9 µM (inactive), the GI50 [3] was 21.8 µM (inactive) and the GI50 [4] was 4.3 µM (inactive). For the same molecule, the GI50 [5] was 15.1 µM (inactive).

`COc1cc(/C=C2/C(=O)N(C(=O)c3ccccc3O)N=C2C)cc(OC)c1OC` was tested, and the GI50 [1] was 1.9 µM (inactive), the GI50 [2] was 0.695 µM (active) and the GI50 [3] was 0.484 µM (active). For the same molecule, the GI50 [7] was 0.741 µM (active), the GI50 [8] was 0.753 µM (active) and the GI50 [9] was 1.02 µM (active).

`CCOC(=O)C(C)(C)Oc1ccc2c(=O)cc(-c3ccc(Cl)cc3)oc2c1` was tested, and the GI50 [1] was > 100 µM (inactive), the GI50 [2] was > 100 µM (inactive) and the GI50 [3] was > 100 µM (inactive). The GI50 [4] was > 100 µM (inactive) and the GI50 [6] was > 100 µM (inactive).

With `COc1ccc(NC(=O)C(C)Oc2ccc(OCC3CCCCC3)cc2)cc1` (configuration not stated) the GI50 [1] was 85.7 µM (inactive), the GI50 [2] was > 100 µM (inactive) and the GI50 [3] was 64 µM (inactive). For the same molecule, the GI50 [4] was 42.3 µM (inactive).

`NC(=S)N/N=C(/CC(=O)c1ccccc1)C(=O)Nc1ccc(Cl)c(Cl)c1` was tested, and the GI50 [2] was > 100 µM (inactive), the GI50 [3] was 83.6 µM (inactive) and the GI50 [4] was 76.6 µM (inactive). The GI50 [5] was > 100 µM (inactive).

`COc1ccc(OC)c2[nH]c(Sc3c([N+](=O)[O-])ncn3C)nc12` was tested, and the GI50 [1] was 17.3 µM (inactive), the GI50 [2] was 20.6 µM (inactive) and the GI50 [3] was 20.6 µM (inactive). The GI50 [4] was 11.8 µM (inactive) and the GI50 [6] was 18.5 µM (inactive).

`CC1(CCCCO)C=CC(S(=O)(=O)c2ccccc2)CC1` (configuration not stated) was tested, and the GI50 [7] was 14.4 µM (inactive), the GI50 [8] was 3.15 µM (inactive) and the GI50 [9] was 3.42 µM (inactive).

With `Cc1nc2c(n1Cc1ccc(F)cc1)C(=O)c1ccccc1C2=O` the GI50 [1] was 29.9 µM (inactive), the GI50 [2] was 3.62 µM (inactive) and the GI50 [4] was 6.43 µM (inactive).

In the case of `COc1ccc(OC(C(=O)O)c2ccccc2)c2c1CCCC2=O` (configuration not stated), the GI50 [1] is reported as > 100 µM (inactive), the GI50 [2] is reported as > 100 µM (inactive) and the GI50 [3] is reported as > 100 µM (inactive). For the same molecule, the GI50 [4] was > 100 µM (inactive), the GI50 [5] was > 100 µM (inactive) and the GI50 [6] was > 100 µM (inactive).

`Cc1oc2c(c1C(=O)c1ccccc1)C(=O)c1ccccc1C2=O` was tested, and the GI50 [1] was 2.32 µM (inactive), the GI50 [2] was 2.18 µM (inactive) and the GI50 [3] was 5.02 µM (inactive). For the same molecule, the GI50 [4] was 8.34 µM (inactive), the GI50 [7] was 6.19 µM (inactive) and the GI50 [5] was 16.6 µM (inactive). For the same molecule, the GI50 [8] was 4.07 µM (inactive), the GI50 [9] was 2 µM (inactive) and the GI50 [6] was 17.7 µM (inactive).

In the case of `COc1cc(/C=C2/SC(c3ccccc3)N(c3cc(Cl)ccc3Cl)C2=O)cc(OC)c1OC` (configuration not stated), the GI50 [7] is reported as > 100 µM (inactive), the GI50 [8] is reported as 30.8 µM (inactive) and the GI50 [9] is reported as 19.1 µM (inactive).

`CCCN(CCCC(NC(C)=O)C(=O)NCc1ccccc1)C(=O)NC` (configuration not stated) was tested, and the GI50 [2] was > 100 µM (inactive), the GI50 [3] was > 100 µM (inactive) and the GI50 [4] was > 100 µM (inactive). For the same molecule, the GI50 [6] was > 100 µM (inactive).
